From patent US7973219B2, “Method for producing transgenic plants resistant to weed control compounds which disrupt the porphyrin pathways of plants” (Sumitomo Chemical Company, Limited, priority 1998, dated 2011)

Key:
[1] = tested on: E. coli BT3/pACYCSP+pYAGF strain; experiment: Growth of E. coli BT3/pACYCSP+pYAGF with herbicidal compound; format: cell-based, Escherichia coli; settings: 1 ppm, 18 hours culture, Table 15
Excerpt: (§1) According to the description of Gibson, L. C. D. et al., Proc. Natl. Acad. Sci. USA, 92; p 1941 (1995), the DNA fragment containing bchH gene prepared in Example 1 was digested with the restriction enzymes NdeI and BglII. The resultant DNA fragment was inserted between NdeI restriction site and BamHI restriction site of expression vector pET11a (manufactured by Stratagene) to obtain plasmid pETBCH (FIG. 1). This plasmid pETBCH was introduced into E. coli BL21(DE3) strain competent cells (manufactured by Stratagene) according to the manual attached to the competent cells to obtain E. coli BL21(DE3)/pETBCH strain. The strain was inoculated into 1.5 ml LB liquid culture medium (1% tryptone, 0.5% yeast extract, 0.5% NaCl) containing 100 μg/ml ampicillin in a tube (14×10 mm), and the tube was covered with aluminum foil (hereinafter referred to as dark conditions), cultured with shaking at 37° C. under light of fluorescent lamp (about 8000 lux). When the absorbance at 600 nm of the liquid culture medium became about 0.6, isopropyl β-D-thiogalactopyranoside (IPTG) was added to the liquid culture medium so that the final concentration was 0.4 mM, and the culture was continued for about additional 20 hours. […]

[2] = tested on: E. coli BT3/pACYCSP+pHASYS strain; experiment: Growth of E. coli BT3/pACYCSP+pHASYS with herbicidal compound; format: cell-based, Escherichia coli; settings: 1 ppm, 18 hours culture, Table 15
Excerpt: as §1

C#CCOc1cc(N2C(=O)C3=C(CCCC3)C2=O)c(F)cc1Cl [Structure 8]
Relative absorbance ([1]; in the dark): 0.96 | Relative absorbance ([1]; in the light): 0.62 | Relative absorbance ([2]; in the dark): 0.96 | Relative absorbance ([2]; in the light): 0.65
